Columns and labels:
[1] = test system: patient-derived BT3 glioma cells; assay: Ex vivo autoradiography of brain cryosections, orthotopic glioma; format: in vivo, BALB/cOlaHsd-Foxn1^nu mouse; settings: for Autoradiography TBRmean: n = 12 brain sections
Description: See Suppl. Materials in ESM for detailed descriptions of biodistribution, stability, cryosectioning, autoradiography, and histology.

[2] = In vivo stability analysis, plasma precipitation assay; parameters: species or system C57BL/6J and Foxn1^nu/nu mice; settings: after 60 min
Protocol: Tracer in vivo stability studies were performed with 12 mice consisting of two groups; 6 1-year-old male C57BL/6J and 6 3-month-old female Foxn1^nu/nu mice.
Twelve non-tumor-bearing control mice (6 C57BL/6J and 6 Foxn1^nu/nu) were injected with 9–14 MBq of tracer before a 200-μL blood sample was drawn into a heparinized vial and kept on ice. After 15 min, a second sample was collected during animal sacrifice. Whole blood was weighed and measured for radioactivity before being centrifuged at 730×g and 5 °C for 5 min, separated into plasma and blood cell fractions, and then separately weighed and measured. The values were used along with age, gender, and animal model-specific hematocrit values (reported by suppliers) to calculate the plasma radioactivity fraction of the whole-blood radioactivity (Eq. 1):1 Plasma Activity Fraction=Cp/CRBC+Cp=ρpCpHCT/ρbCb−ρpCp1−HCT+ρpCpHCT where C = radioactivity concentration, ρ = density, and HCT = hematocrit. […]
Aliquots of plasma were precipitated with 2.5 × (volume) methanol, vortexed, and centrifuged at 11,000×g for 5 min. The pellet and supernatant fractions were separated and measured for radioactivity to give the radioactivity fraction of the plasma that was trapped or bound to proteins (Eq. 2):2 Unbound plasma fraction=Csup/Cpel+Csup where C = radioactivity of subscripts which denote the following: sup = supernatant and pel = pellet. […]

[3] = test system: rat BT4C glioma cells; assay: Yokoi plot, subcutaneous model; format: in vivo, Foxn1^nu/nu mouse; settings: for Yokoi K1 (AB) plasma to tissue transport rate / Yokoi K1/k2 (AB) binding potential / Yokoi k2 (AB) tissue to plasma transport rate: AB input; for Yokoi K1 (PC) plasma to tissue transport rate / Yokoi K1/k2 (PC) binding potential / Yokoi k2 (PC) tissue to plasma transport rate: PC input
Protocol: (§1) Image analysis was performed using CARIMAS software published and freely distributed by the Turku PET Center (http://turkupetcentre.fi/carimas/). CT scans were used as rough anatomical reference while tumor regions of interest (ROI) were hand-drawn based upon observed spikes of radioactivity in the PET images at locations correlating with recorded tumor grafts. Control muscle ROIs were drawn on the side opposite to the tumor in the leg flank muscle (based on CT) while the blood ROI was drawn based upon heart anatomical location and observed PET image radioactivity spike during the initial 20 s of imaging in the left ventricle. Standardized uptake values (SUV) were calculated with respect to ROI volume, mean and max tumor radioactivity, total injected radioactivity dose (corrected for tail, cannula, and syringe residual radioactivity), and animal weight, and were additionally presented as tumor-to-background ratio (TBR, tumor-to-healthy brain region for intracranial gliomas and tumor-to-muscle for subcutaneous gliomas) as defined by recent glioma research literature standards. Mean and maximum TBR values were reported as ROI radioactivity per volume divided by mean background radioactivity per volume. The blood radioactivity SUV and gender-specific metabolite-corrected blood radioactivity SUV were then applied to multiple pharmacokinetic models to characterize the flux of the tracer (further described in the “Modeling” section).
(§2) Using the heart’s left ventricle ROI from the PET data as an uncorrected radioactivity level input and the bioavailable parent-tracer fraction (results: Eqs. 3 and 4 applied to the uncorrected input) as the corrected input, multiple models were investigated to characterize the tissue uptake dynamics. Two-compartment modeling and Logan, Patlak, and Yokoi plots were used to separately model the pharmacokinetics for the gliomas (both subcutaneous and orthotopic loci) and their respective control tissues (healthy muscle and healthy brain, respectively). Where indicated, means plus/minus standard deviations are reported. Difference in parameters for uncorrected versus correct and target tissue versus their respective control regions were tested with students’ paired t tests with P values lower than 0.05 being considered significant.

[4] = test system: rat BT4C glioma cells; assay: 2-Compartment model, subcutaneous model; format: in vivo, Foxn1^nu/nu mouse
Protocol: as §1, §2

[5] = Bone (femoral condyle) average (n = 6)
[6] = Bone (femoral condyle) average (n = 6), arterial blood input
[7] = Bone (femoral condyle) average (n=6), plasma-corrected input
[8] = Flank muscle average (n = 6), arterial blood input
[9] = Flank muscle average (n=6), plasma-corrected input
[10] = Flank tumor average (n = 6), arterial blood input
[11] = Flank tumor average (n=6), plasma-corrected input
[12] = Neck tumor average (n = 6), arterial blood input
[13] = Neck tumor average (n=6), plasma-corrected input

NC(=O)[C@H]([18F])C[C@H](N)C(=O)O [[^18F]FGln, (2S, 4R)-4-[^18F]fluoroglutamine]
Autoradiography TBRmean ([1]; Subject A): 8.9 ± 1.1 (range 7.2–10.5)
Autoradiography TBRmean ([1]; Subject B): 9.9 ± 0.7 (range 8.9–11.0)
Autoradiography TBRmean ([1]; Subject C): 7.8 ± 0.4 (range 7.3–8.4)
Autoradiography TBR, average ([1]; n = 3 subjects, 36 sections): 8.9 ± 1.1
Plasma radioactivity bound to or incorporated into proteins [2]: roughly 25%
Yokoi K1 (AB) plasma to tissue transport rate [3, 5]: 0.075 ± 0.013 mL min-1 mL-1
Yokoi K1/k2 (AB) binding potential [3, 5]: 5.48 ± 2.21 mL mL-1
Yokoi k2 (AB) tissue to plasma transport rate [3, 5]: 0.017 ± 0.012 min⁻¹
Yokoi K1 (PC) plasma to tissue transport rate [3, 5]: 0.086 ± 0.015 mL min-1 mL-1
Yokoi K1/k2 (PC) binding potential [3, 5]: 37.68 ± 39.62 mL mL-1
Yokoi k2 (PC) tissue to plasma transport rate [3, 5]: 0.005 ± 0.006 min⁻¹
Yokoi K1 (AB) plasma to tissue transport rate ([3]; Flank muscle average (n = 6)): 0.057 ± 0.023 mL min-1 mL-1
Yokoi K1/k2 (AB) binding potential ([3]; Flank muscle average (n = 6)): 0.76 ± 0.13 mL mL-1
Yokoi k2 (AB) tissue to plasma transport rate ([3]; Flank muscle average (n = 6)): 0.074 ± 0.028 min⁻¹
Yokoi K1 (PC) plasma to tissue transport rate ([3]; Flank muscle average (n = 6)): 0.054 ± 0.017 mL min-1 mL-1
Yokoi K1/k2 (PC) binding potential ([3]; Flank muscle average (n = 6)): 1.37 ± 0.23 mL mL-1
Yokoi k2 (PC) tissue to plasma transport rate ([3]; Flank muscle average (n = 6)): 0.039 ± 0.013 min⁻¹
Yokoi K1 (AB) plasma to tissue transport rate ([3]; Flank tumor average (n = 6)): 0.121 ± 0.039 mL min-1 mL-1
Yokoi K1/k2 (AB) binding potential ([3]; Flank tumor average (n = 6)): 1.13 ± 0.09 mL mL-1
Yokoi k2 (AB) tissue to plasma transport rate ([3]; Flank tumor average (n = 6)): 0.106 ± 0.029 min⁻¹
Yokoi K1 (PC) plasma to tissue transport rate ([3]; Flank tumor average (n = 6)): 0.105 ± 0.027 mL min-1 mL-1
Yokoi K1/k2 (PC) binding potential ([3]; Flank tumor average (n = 6)): 1.95 ± 0.15 mL mL-1
Yokoi k2 (PC) tissue to plasma transport rate ([3]; Flank tumor average (n = 6)): 0.054 ± 0.011 min⁻¹
Yokoi K1 (AB) plasma to tissue transport rate ([3]; Neck tumor average (n = 6)): 0.179 ± 0.076 mL min-1 mL-1
Yokoi K1/k2 (AB) binding potential ([3]; Neck tumor average (n = 6)): 1.21 ± 0.08 mL mL-1
Yokoi k2 (AB) tissue to plasma transport rate ([3]; Neck tumor average (n = 6)): 0.146 ± 0.056 min⁻¹
Yokoi K1 (PC) plasma to tissue transport rate ([3]; Neck tumor average (n = 6)): 0.135 ± 0.039 mL min-1 mL-1
Yokoi K1/k2 (PC) binding potential ([3]; Neck tumor average (n = 6)): 2.08 ± 0.13 mL mL-1
Yokoi k2 (PC) tissue to plasma transport rate ([3]; Neck tumor average (n = 6)): 0.065 ± 0.016 min⁻¹
2-Compartment K1 [4, 6]: 0.309 ± 0.179 mL min-1 mL-1
2-Compartment K1/k2 [4, 6]: 0.745 ± 0.194 mL mL-1
2-Compartment Vb [4, 6]: 5.45 ± 2.53%
2-Compartment k3 [4, 6]: 0.075 ± 0.034 min⁻¹
2-Compartment k3*K1/k2 [4, 6]: 0.052 ± 0.017
2-Compartment k3/(k2+k3) [4, 6]: 0.171 ± 0.083
2-Compartment K1 [4, 7]: 0.402 ± 0.206 mL min-1 mL-1
2-Compartment K1/k2 [4, 7]: 0.649 ± 0.191 mL mL-1
2-Compartment Vb [4, 7]: 3.21 ± 3.57%
2-Compartment k3 [4, 7]: 0.148 ± 0.063 min⁻¹
2-Compartment k3*K1/k2 [4, 7]: 0.086 ± 0.024
2-Compartment k3/(k2+k3) [4, 7]: 0.198 ± 0.079
2-Compartment K1 [4, 8]: 0.079 ± 0.027 mL min-1 mL-1
2-Compartment K1/k2 [4, 8]: 0.564 ± 0.130 mL mL-1
2-Compartment Vb [4, 8]: 2.33 ± 1.07%
2-Compartment k3 [4, 8]: 0.009 ± 0.005 min⁻¹
2-Compartment k3*K1/k2 [4, 8]: 0.005 ± 0.002
2-Compartment k3/(k2+k3) [4, 8]: 0.061 ± 0.038
2-Compartment K1 [4, 9]: 0.081 ± 0.027 mL min-1 mL-1
2-Compartment K1/k2 [4, 9]: 0.797 ± 0.163 mL mL-1
2-Compartment Vb [4, 9]: 2.8 ± 1.12%
2-Compartment k3 [4, 9]: 0.015 ± 0.005 min⁻¹
2-Compartment k3*K1/k2 [4, 9]: 0.012 ± 0.003
2-Compartment k3/(k2+k3) [4, 9]: 0.136 ± 0.055
2-Compartment K1 [4, 10]: 0.147 ± 0.028 mL min-1 mL-1
2-Compartment K1/k2 [4, 10]: 0.973 ± 0.187 mL mL-1
2-Compartment Vb [4, 10]: 5.59 ± 2.78%
2-Compartment k3 [4, 10]: 0.005 ± 0.004 min⁻¹
2-Compartment k3*K1/k2 [4, 10]: 0.004 ± 0.003
2-Compartment k3/(k2+k3) [4, 10]: 0.028 ± 0.021
2-Compartment K1 [4, 11]: 0.148 ± 0.027 mL min-1 mL-1
2-Compartment K1/k2 [4, 11]: 1.369 ± 0.273 mL mL-1
2-Compartment Vb [4, 11]: 6.64 ± 3.1%
2-Compartment k3 [4, 11]: 0.010 ± 0.004 min⁻¹
2-Compartment k3*K1/k2 [4, 11]: 0.013 ± 0.003
2-Compartment k3/(k2+k3) [4, 11]: 0.086 ± 0.028
2-Compartment K1 [4, 12]: 0.202 ± 0.079 mL min-1 mL-1
2-Compartment K1/k2 [4, 12]: 1.129 ± 0.141 mL mL-1
2-Compartment Vb [4, 12]: 8.28 ± 5.95%
2-Compartment k3 [4, 12]: 0.002 ± 0.002 min⁻¹
2-Compartment k3*K1/k2 [4, 12]: 0.002 ± 0.002
2-Compartment k3/(k2+k3) [4, 12]: 0.015 ± 0.013
2-Compartment K1 [4, 13]: 0.202 ± 0.072 mL min-1 mL-1
2-Compartment K1/k2 [4, 13]: 1.567 ± 0.209 mL mL-1
2-Compartment Vb [4, 13]: 9.79 ± 6.85%
2-Compartment k3 [4, 13]: 0.008 ± 0.002 min⁻¹
2-Compartment k3*K1/k2 [4, 13]: 0.013 ± 0.002
2-Compartment k3/(k2+k3) [4, 13]: 0.065 ± 0.026
